Laboratory results taken from patent publication US10308644B2, “Heterocyclic compounds as immunomodulators” (Incyte Corporation, priority 2016, dated 2019).

Target: PD-1/PD-L1 (Homo sapiens (Human), UniProt Q9NZQ7)
Assay: PD-1/PD-L1 Homogeneous Time-Resolved Fluorescence (HTRF) Binding Assay
Conditions: recombinant human PD-1 (3 nM) and PD-L1 (10 nM), 25° C., PBS pH 7.4
Procedure: Example A. PD-1/PD-L1 Homogeneous Time-Resolved Fluorescence (HTRF) Binding Assay
The assays were conducted in a standard black 384-well polystyrene plate with a final volume of 20 μL. Inhibitors were first serially diluted in DMSO and then added to the plate wells before the addition of other reaction components. The final concentration of DMSO in the assay was 1%. The assays were carried out at 25° C. in the PBS buffer (pH 7.4) with 0.05% Tween-20 and 0.1% BSA. Recombinant human PD-L1 protein (19-238) with a His-tag at the C-terminus was purchased from AcroBiosystems (PD1-H5229). Recombinant human PD-1 protein (25-167) with Fc tag at the C-terminus was also purchased from AcroBiosystems (PD1-H5257). PD-L1 and PD-1 proteins were diluted in the assay buffer and 10 μL was added to the plate well. Plates were centrifuged and proteins were preincubated with inhibitors for 40 minutes. The incubation was followed by the addition of 10 μL of HTRF detection buffer supplemented with Europium cryptate-labeled anti-human IgG (PerkinElmer-AD0212) specific for Fc and anti-His antibody conjugated to SureLight®-Allophycocyanin (APC, PerkinElmer-AD0059H). After centrifugation, the plate was incubated at 25° C. for 60 min. before reading on a PHERAstar FS plate reader (665 nm/620 nm ratio). Final concentrations in the assay were—3 nM PD1, 10 nM PD-L1, 1 nM europium anti-human IgG and 20 nM anti-His-Allophycocyanin. IC50 determination was performed by fitting the curve of percent control activity versus the log of the inhibitor concentration using the GraphPad Prism 5.0 software.

Sequence of PD-1/PD-L1 (Q9NZQ7 19-238): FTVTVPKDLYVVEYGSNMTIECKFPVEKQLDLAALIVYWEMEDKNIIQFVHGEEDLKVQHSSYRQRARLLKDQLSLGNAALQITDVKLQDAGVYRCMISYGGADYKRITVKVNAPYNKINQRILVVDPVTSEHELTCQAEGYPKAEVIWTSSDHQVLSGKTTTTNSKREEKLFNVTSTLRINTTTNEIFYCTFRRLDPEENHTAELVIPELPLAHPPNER

Compound	IC50 [nM]
Cc1c(Nc2nccc3cc(CN4CC[C@H](O)C4)cnc23)cccc1-c1cccc(-c2nc3cc(CN4CC[C@H](C(=O)O)C4)cc(C#N)c3o2)c1C [Example 25, (S)-1-((7-cyano-2-(3′-(3-(((S)-3-hydroxypyrrolidin-1-yl)methyl)-1,7-naphthyridin-8-ylamino)-2,2′-dimethylbiphenyl-3-yl)benzo[d]oxazol-5-yl)methyl)pyrrolidine-3-carboxylic acid]	≤ 10
Cc1c(-c2nc3c(o2)CNCC3)cccc1-c1cccc(-c2nc3cc(CN4CC[C@@H](C(=O)O)C4)cc(Cl)c3o2)c1C [Example 78, (R)-1-((7-chloro-2-(2,2′-dimethyl-3′-(4,5,6,7-tetrahydrooxazolo[5,4-c]pyridin-2-yl)-[1,1′-biphenyl]-3-yl)benzo[d]oxazol-5-yl)methyl)pyrrolidine-3-carboxylic acid]	≤ 10
Cc1c(NC(=O)c2nc3c(n2C)CCN(C[C@H](C)O)C3)cccc1-c1cccc(-c2nc3cc(CN4CC[C@H](C(=O)O)C4)cc(C#N)c3o2)c1C [Example 41, (S)-1-((7-cyano-2-(3′-(5-((S)-2-hydroxypropyl)-1-methyl-4,5,6,7-tetrahydro-1H-imidazo[4,5-c]pyridine-2-carboxamido)-2,2′-dimethylbiphenyl-3-yl)benzo[d]oxazol-5-yl)methyl)pyrrolidine-3-carboxylic acid]	≤ 10
Cc1c(Nc2nccc3cc(CN4CC[C@@H](O)C4)cnc23)cccc1-c1cccc(-c2nc3cc(CN4CC[C@@H](C(=O)O)C4)cc(C#N)c3o2)c1C [Example 24, (R)-1-((7-cyano-2-(3′-(3-(((R)-3-hydroxypyrrolidin-1-yl)methyl)-1,7-naphthyridin-8-ylamino)-2,2′-dimethylbiphenyl-3-yl)benzo[d]oxazol-5-yl)methyl)pyrrolidine-3-carboxylic acid]	≤ 10
Cc1c(-c2nc3cc(CN4CC[C@H](C(=O)O)C4)cc(C#N)c3o2)cccc1-c1cccc(NC(=O)c2nc3c(n2C)CCNC3)c1Cl [Example 92, (S)-1-((2-(2′-chloro-2-methyl-3′-(1-methyl-4,5,6,7-tetrahydro-1H-imidazo[4,5-c]pyridine-2-carboxamido)biphenyl-3-yl)-7-cyanobenzo[d]oxazol-5-yl)methyl)pyrrolidine-3-carboxylic acid]	≤ 10
Cc1c(Nc2nccc3cc(CN4CC[C@H](O)C4)cnc23)cccc1-c1cccc(-c2nc3cc(CN4CC(C(=O)O)C4)cc(Cl)c3o2)c1C [Example 23, (S)-1-((7-chloro-2-(3′-(3-((3-hydroxypyrrolidin-1-yl)methyl)-1,7-naphthyridin-8-ylamino)-2,2′-dimethylbiphenyl-3-yl)benzo[d]oxazol-5-yl)methyl)azetidine-3-carboxylic acid]	≤ 10
Cc1c(-c2nc3cc(CN4CC[C@@H](C(=O)O)C4)cc(Cl)c3o2)cccc1-c1cccc(Nc2nccc3cc(CN4CC[C@@H](O)C4)cnc23)c1Cl [Example 82, (R)-1-((7-chloro-2-(2′-chloro-3′-(3-(((R)-3-hydroxypyrrolidin-1-yl)methyl)-1,7-naphthyridin-8-ylamino)-2-methylbiphenyl-3-yl)benzo[d]oxazol-5-yl)methyl)pyrrolidine-3-carboxylic acid]	≤ 10
Cc1c(Nc2nccc3cc(CN4CC[C@H](O)C4)cnc23)cccc1-c1cccc(-c2nc3cc(CN(C)CCC(=O)O)cc(Cl)c3o2)c1C [Example 21, (S)-3-(((7-chloro-2-(3′-(3-((3-hydroxypyrrolidin-1-yl)methyl)-1,7-naphthyridin-8-ylamino)-2,2′-dimethylbiphenyl-3-yl)benzo[d]oxazol-5-yl)methyl)(methyl)amino)propanoic acid]	≤ 10
Cc1c(-c2nc3cc(CN4CC[C@@H](C(=O)O)C4)cc(C#N)c3o2)cccc1-c1cccc(N2CCC(N[C@H]3C[C@@H](O)C3)CC2)c1Cl [Example 47, (R)-1-((2-(2′-chloro-3′-(4-((1s,3s)-3-hydroxycyclobutylamino)piperidin-1-yl)-2-methylbiphenyl-3-yl)-7-cyanobenzo[d]oxazol-5-yl)methyl)pyrrolidine-3-carboxylic acid]	≤ 10

Next, values leading:

IC50 [nM]	Compound
≤ 10	Cc1c(-c2nc3cc(CN4CC[C@@H](C(=O)O)C4)cc(C#N)c3o2)cccc1-c1cccc(-c2nc3c(o2)CN(C(=O)CN2CC[C@@H](O)C2)C3)c1Cl [Example 256, (R)-1-((2-(2′-chloro-3′-(5-(2-((R)-3-hydroxypyrrolidin-1-yl)acetyl)-5,6-dihydro-4H-pyrrolo[3,4-d]oxazol-2-yl)-2-methyl-[1,1′-biphenyl]-3-yl)-7-cyanobenzo[d]oxazol-5-yl)methyl)pyrrolidine-3-carboxylic acid]
≤ 10	Cc1c(Nc2nccc3cc(CN4CC[C@@](C)(C(=O)O)C4)cnc23)cccc1-c1cccc(-c2nc3cc(CN[C@@H](C)CO)cc(C#N)c3o2)c1C [Example 215, (R)-1-((8-(3′-(7-cyano-5-(((S)-1-hydroxypropan-2-ylamino)methyl)benzo[d]oxazol-2-yl)-2,2′-dimethylbiphenyl-3-ylamino)-1,7-naphthyridin-3-yl)methyl)-3-methylpyrrolidine-3-carboxylic acid]
≤ 10	CCN(C)CC(=O)N1Cc2nc(-c3cccc(-c4cccc(-c5nc6cc(CN7CCC(C(=O)O)CC7)cc(C#N)c6o5)c4C)c3C)oc2C1 [Example 244, 1-((7-cyano-2-(3′-(5-(N-ethyl-N-methylglycyl)-5,6-dihydro-4H-pyrrolo[3,4-d]oxazol-2-yl)-2,2′-dimethyl-[1,1′-biphenyl]-3-yl)benzo[d]oxazol-5-yl)methyl)piperidine-4-carboxylic acid]
10 to 100	Cc1c(COc2cc(OCc3cncc(C#N)c3)c(CN3CCCC[C@H]3C(=O)O)cc2Cl)cccc1-c1cccc(-c2nc3cc(CN4CC[C@@H](C(=O)O)C4)cc(Cl)c3o2)c1C [Example 149, (S)-1-(4-((3′-(5-(((R)-3-carboxypyrrolidin-1-yl)methyl)-7-chlorobenzo[d]oxazol-2-yl)-2,2′-dimethyl-[1,1′-biphenyl]-3-yl)methoxy)-5-chloro-2-((5-cyanopyridin-3-yl)methoxy)benzyl)piperidine-2-carboxylic acid]
≤ 10	Cc1c(Nc2nccc3cc(CNC[C@H](C)O)cnc23)cccc1-c1cccc(-c2nc3cc(CN4CC[C@@](C)(C(=O)O)C4)cc(C#N)c3o2)c1C [Example 191, (R)-1-((7-cyano-2-(3′-(3-(((S)-2-hydroxypropylamino)methyl)-1,7-naphthyridin-8-ylamino)-2,2′-dimethylbiphenyl-3-yl)benzo[d]oxazol-5-yl)methyl)-3-methylpyrrolidine-3-carboxylic acid]
≤ 10	Cc1c(-c2nc3c(o2)CN(C(=O)CN2CC[C@@H](O)C2)C3)cccc1-c1cccc(-c2nc3cc(CN4CC[C@@H](C(=O)O)C4)cc(C#N)c3o2)c1C [Example 126, (R)-1-((7-cyano-2-(3′-(5-(2-((R)-3-hydroxypyrrolidin-1-yl)acetyl)-5,6-dihydro-4H-pyrrolo[3,4-d]oxazol-2-yl)-2,2′-dimethyl-[1,1′-biphenyl]-3-yl)benzo[d]oxazol-5-yl)methyl)pyrrolidine-3-carboxylic acid]
≤ 10	Cc1c(Nc2ncnc3cc(CN4CC[C@@H](O)C4)cnc23)cccc1-c1cccc(-c2nc3cc(CN4CCC[C@H](C(=O)O)C4)cc(C#N)c3o2)c1C [Example 206, (S)-1-((7-cyano-2-(3′-(7-(((R)-3-hydroxypyrrolidin-1-yl)methyl)pyrido [3,2-d]pyrimidin-4-ylamino)-2,2′-dimethylbiphenyl-3-yl)benzo[d]oxazol-5-yl)methyl)piperidine-3-carboxylic acid]
≤ 10	CCN1CCc2c(nc(C(=O)Nc3cccc(-c4cccc(-c5nc6cc(CN7CC[C@H](C(=O)O)C7)cc(C#N)c6o5)c4C)c3Cl)n2C)C1 [Example 142, (S)-1-((2-(2′-chloro-3′-(5-ethyl-1-methyl-4,5,6,7-tetrahydro-1H-imidazo[4,5-c]pyridine-2-carboxamido)-2-methyl-[1,1′-biphenyl]-3-yl)-7-cyanobenzo[d]oxazol-5-yl)methyl)pyrrolidine-3-carboxylic acid]
≤ 10	Cc1c(Nc2nccc3cc(C(C)N4CC[C@@H](O)C4)cnc23)cccc1-c1cccc(-c2nc3cc(CN4CC[C@@H](C(=O)O)C4)cc(C#N)c3o2)c1C (stereo partly drawn) [Example 140, (3R)-1-((7-cyano-2-(3′-(3-(1-((R)-3-hydroxypyrrolidin-1-yl)ethyl)-1,7-naphthyridin-8-ylamino)-2,2′-dimethylbiphenyl-3-yl)benzo[d]oxazol-5-yl)methyl)pyrrolidine-3-carboxylic acid]
≤ 10	CNC(=O)[C@@H]1CCN(Cc2cc(C#N)c3oc(-c4cccc(-c5cccc(-c6nc7c(s6)CN(C(C)C)CC7)c5C)c4C)nc3c2)C1 [Example 117, (R)-1-((7-cyano-2-(3′-(5-isopropyl-4,5,6,7-tetrahydrothiazolo[5,4-c]pyridin-2-yl)-2,2′-dimethyl-[1,1′-biphenyl]-3-yl)benzo[d]oxazol-5-yl)methyl)-N-methylpyrrolidine-3-carboxamide]
